{"source": "patent US7666901B2", "about": "“Analogs of 17-hydroxywortmannin as PI3K inhibitors” (Wyeth, priority 2004, dated 2010)", "assay_type_in_all_cases": "cell-based, human", "key": {"MDA-MB-231 breast cells": {"test_system": "MDA-MB-231 breast cells", "test": "Tumor cell growth assay, combination with CCI-779, MDA-MB-231", "conditions": "compound 4 at 0.1 μg/ml", "protocol": "(§1) Human tumor cell are all obtained from ATCC, and are cultured using standard cell culture methods. Cells are plated in 96-well culture plates at 1000 to 3000 cells per well. One day following plating, cells are treated with various doses of PI3K inhibitor Compound 4 or Compound 5 alone or with a low constant dose of MEK inhibitor 2-(2-chloro-4-iodoanilino)-N-(cycloprorylmethoxy-3,4-difluobenzamide) (1 μg/ml) or UO126 (5 μg/ml). UO126 is also known as 1,4-diamino-2,3-dicyano-1,4-bis[2-aminophenylthio]butadiene. In some experiments, cells are treated alone with various doses of the MEK inhibitor (2-(2-chloro-4-iodoanilino)-N-(cycloprorylmethoxy-3,4-difluobenzamide)), or HER2/neu inhibitor HKI-272, or mTOR inhibitor CCI-779, or with a low constant dose of Compound 4 (0.1 μg/ml). […] Three days after drug treatment, viable cell densities are determined by metabolic conversion (by viable cells) of the dye MTS, an established cell proliferation assay. […] The MTS assay results are read in a 96-well plate reader by measuring absorbance at 490 nm. The effect of each treatment is calculated as percent of control growth relative to the vehicle DMSO-treated cells grown in the same culture plate. […]"}, "[1]": {"test_system": "non-small cell lung cancer (NSCLC) cell lines", "test": "Tumor cell growth assay, combination with MEK inhibitor, NSCLC", "protocol": "as §1"}, "HCT116 colon tumor cells": {"test_system": "HCT116 colon tumor cells", "test": "Tumor cell growth assay, combination with MEK inhibitors, HCT116", "conditions": "MEK inhibitor at low constant dose", "protocol": "as §1"}}, "data": [{"compound": "COC[C@H]1OC(=O)/C(=C/N(CCO)C(C)(C)C)C2=C(O)C(=O)C3=C([C@H](OC(C)=O)C[C@@]4(C)C3CC[C@@H]4O)[C@]21C", "note": "(stereo partly drawn) [Compound 4, (1E,4S,4aR,5R,6aS,7S)-1-{[tert-butyl(2-hydroxyethyl)amino]methylene}-7,11-dihydroxy-4-(methoxymethyl)-4a,6a-dimethyl-2,10-dioxo-1,2,4,4a,5,6,6a,7,8,9,9a,10-dodecahydroindeno[4,5-h]isochromen-5-yl acetate]", "values": [{"measurement": "growth inhibition in combination with mTOR inhibitor CCI-779", "setting": "MDA-MB-231 breast cells", "result": "synergistically inhibited growth"}, {"measurement": "growth inhibition in combination with MEK inhibitor 2-(2-chloro-4-iodoanilino)-N-(cycloprorylmethoxy-3,4-difluobenzamide)", "setting": "[1]", "result": "synergistic growth inhibition"}, {"measurement": "growth inhibition in combination with MEK inhibitors", "setting": "HCT116 colon tumor cells", "result": "synergistically inhibited growth"}]}]}
